Patent US5414006A, “Arylalkoxythiocoumarins, the preparation thereof and therapeutic compositions containing these” (BASF Aktiengesellschaft, priority 1992, dated 1995)

Molecular target: T1, MAO A (Rattus norvegicus, UniProt P21396)
T1 construct: from tissue; host or cells: rat brain homogenate
T1 sequence (P21396 1-526): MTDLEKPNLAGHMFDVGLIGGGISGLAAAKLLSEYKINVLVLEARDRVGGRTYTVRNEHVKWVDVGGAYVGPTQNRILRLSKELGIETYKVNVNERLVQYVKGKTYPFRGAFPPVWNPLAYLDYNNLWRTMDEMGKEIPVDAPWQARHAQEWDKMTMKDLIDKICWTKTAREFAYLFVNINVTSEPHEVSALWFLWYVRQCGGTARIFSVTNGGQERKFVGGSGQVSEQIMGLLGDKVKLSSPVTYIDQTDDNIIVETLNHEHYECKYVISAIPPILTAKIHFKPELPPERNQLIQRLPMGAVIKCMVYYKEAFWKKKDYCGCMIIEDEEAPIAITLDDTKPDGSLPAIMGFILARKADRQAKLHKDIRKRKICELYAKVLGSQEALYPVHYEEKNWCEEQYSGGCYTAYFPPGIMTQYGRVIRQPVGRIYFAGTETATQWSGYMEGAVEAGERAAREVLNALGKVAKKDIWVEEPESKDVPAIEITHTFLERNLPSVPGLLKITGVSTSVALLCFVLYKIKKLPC
Assay: MAO A inhibition in dilute rat brain homogenate
Assay type: biochemical
Settings: 14C-phenylethylamine or 14C-tryptamine 0.4 μmol/l, 37° C., 20 min
Experimental: (§1) The MAO-inhibiting activity of the compounds according to the invention can be determined using standard methods. Thus, monoamine oxidases A and B were determined in dilute rat brain homogenate to which test substances in various concentrations and ^14 C-phenylethylamine or ^14 C-tryptamine in a concentration of 0.4 μmol/l were added. This mixture was incubated at 37° C. for 20 min.
(§2) The reaction was then stopped with 0.1 normal HCl, and the products were determined after extraction in a toluene scintillator (PPO+POPOP in toluene). The blank was determined on a similar mixture with an incubation time of 0 min.
(§3) The median inhibitory concentration (IC50) was calculated by linear regression after logit-log transformation from the values for the inhibition at the various concentrations relative to the control.

Structure (SMILES)	IC50
Cc1c(C)c2cc(Cl)c(OCc3nnc(C4CC4)s3)cc2oc1=S [Example 14, 6-Chloro-3,4-dimethyl-7-(2-cyclopropyl-1,3,4-thiadiazol-5-ylmethoxy)-2-thiocoumarin]	> 10 µM
Cc1c(C)c2cc(Cl)c(OCc3nnc(C(C)C)s3)cc2oc1=S [Example 13, 6-Chloro-3,4-dimethyl-7-(2-isopropyl-1,3,4-thiadiazol-5-ylmethoxy)-2-thiocoumarin]	> 10 µM
Cc1nnc(COc2ccc3c(C)c(C)c(=S)oc3c2)o1 [Example 3, 3,4-Dimethyl-7-(2-methyl-1,3,4-oxadiazol-5-ylmethoxy)-2-thiocoumarin]	> 10 µM
Cc1c(C)c2ccc(OCc3nnc(C(C)C)s3)cc2oc1=S [Example 1, 3,4-Dimethyl-7-(2-isopropyl-1,3,4-thiadiazol-5-ylmethoxy)-2-thiocoumarin]	> 10 µM

Further lines, results first:

IC50	Structure (SMILES)
≥ 10 µM	CC(C)c1ccc(COc2ccc3ccc(=S)oc3c2)cc1 [Example 12, 7-(4-Isopropylbenzyloxy)-2-thiocoumarin]
> 10 µM	Cc1c(C)c2ccc(OCc3csc(C(C)C)n3)cc2oc1=S [Example 2, 3,4-Dimethyl-7-(2-isopropylthiazol-4-ylmethoxy)-2-thiocoumarin]
≥ 10 µM	CCCc1nnc(COc2ccc3c(C)c(C)c(=S)oc3c2)s1 [Example 4, 3,4-Dimethyl-7-(2-n-propyl-1,3,4-thiadiazol-5-ylmethoxy)-2-thiocoumarin]

Molecular target: T2, MAO B (Rattus norvegicus, UniProt P19643)
T2 construct: from tissue; host or cells: rat brain homogenate
T2 sequence (P19643 1-520): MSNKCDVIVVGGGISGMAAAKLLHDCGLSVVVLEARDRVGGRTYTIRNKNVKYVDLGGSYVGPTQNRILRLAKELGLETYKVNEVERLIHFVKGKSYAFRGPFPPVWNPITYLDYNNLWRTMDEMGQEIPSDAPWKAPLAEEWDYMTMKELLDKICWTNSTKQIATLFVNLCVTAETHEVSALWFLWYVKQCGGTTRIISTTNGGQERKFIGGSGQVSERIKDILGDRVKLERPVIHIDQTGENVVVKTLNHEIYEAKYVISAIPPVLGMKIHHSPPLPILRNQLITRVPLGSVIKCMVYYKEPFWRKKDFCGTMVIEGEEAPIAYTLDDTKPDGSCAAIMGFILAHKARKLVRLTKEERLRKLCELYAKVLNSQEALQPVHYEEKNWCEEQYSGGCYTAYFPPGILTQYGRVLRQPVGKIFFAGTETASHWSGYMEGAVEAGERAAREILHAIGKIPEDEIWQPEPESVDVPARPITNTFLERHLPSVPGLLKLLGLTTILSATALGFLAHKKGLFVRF
Assay: MAO B inhibition in dilute rat brain homogenate
Assay type: biochemical
Settings: dilute rat brain homogenate; 14C-phenylethylamine or 14C-tryptamine 0.4 μmol/l; 37° C., 20 min
Experimental: as §1, §2, §3

Structure (SMILES)	IC50
Cc1c(C)c2cc(Cl)c(OCc3nnc(C4CC4)s3)cc2oc1=S [Example 14, 6-Chloro-3,4-dimethyl-7-(2-cyclopropyl-1,3,4-thiadiazol-5-ylmethoxy)-2-thiocoumarin]	6 nM
Cc1c(C)c2cc(Cl)c(OCc3nnc(C(C)C)s3)cc2oc1=S [Example 13, 6-Chloro-3,4-dimethyl-7-(2-isopropyl-1,3,4-thiadiazol-5-ylmethoxy)-2-thiocoumarin]	3 nM
Cc1nnc(COc2ccc3c(C)c(C)c(=S)oc3c2)o1 [Example 3, 3,4-Dimethyl-7-(2-methyl-1,3,4-oxadiazol-5-ylmethoxy)-2-thiocoumarin]	10 nM
Cc1c(C)c2ccc(OCc3nnc(C(C)C)s3)cc2oc1=S [Example 1, 3,4-Dimethyl-7-(2-isopropyl-1,3,4-thiadiazol-5-ylmethoxy)-2-thiocoumarin]	1 nM

Further lines, results first:

IC50	Structure (SMILES)
3 nM	CC(C)c1ccc(COc2ccc3ccc(=S)oc3c2)cc1 [Example 12, 7-(4-Isopropylbenzyloxy)-2-thiocoumarin]
3 nM	Cc1c(C)c2ccc(OCc3csc(C(C)C)n3)cc2oc1=S [Example 2, 3,4-Dimethyl-7-(2-isopropylthiazol-4-ylmethoxy)-2-thiocoumarin]
2 nM	CCCc1nnc(COc2ccc3c(C)c(C)c(=S)oc3c2)s1 [Example 4, 3,4-Dimethyl-7-(2-n-propyl-1,3,4-thiadiazol-5-ylmethoxy)-2-thiocoumarin]

Same assay, conditions: selectivity for MAO B over MAO A, rat brain homogenate; 20 min

Structure (SMILES)	MAO A / MAO B IC50 ratio
Cc1c(C)c2cc(Cl)c(OCc3nnc(C4CC4)s3)cc2oc1=S [Example 14, 6-Chloro-3,4-dimethyl-7-(2-cyclopropyl-1,3,4-thiadiazol-5-ylmethoxy)-2-thiocoumarin]	> 1667
Cc1c(C)c2cc(Cl)c(OCc3nnc(C(C)C)s3)cc2oc1=S [Example 13, 6-Chloro-3,4-dimethyl-7-(2-isopropyl-1,3,4-thiadiazol-5-ylmethoxy)-2-thiocoumarin]	> 3333
Cc1nnc(COc2ccc3c(C)c(C)c(=S)oc3c2)o1 [Example 3, 3,4-Dimethyl-7-(2-methyl-1,3,4-oxadiazol-5-ylmethoxy)-2-thiocoumarin]	> 1000
Cc1c(C)c2ccc(OCc3nnc(C(C)C)s3)cc2oc1=S [Example 1, 3,4-Dimethyl-7-(2-isopropyl-1,3,4-thiadiazol-5-ylmethoxy)-2-thiocoumarin]	> 10,000

Now from value to compound:

MAO A / MAO B IC50 ratio	Structure (SMILES)
> 3333	CC(C)c1ccc(COc2ccc3ccc(=S)oc3c2)cc1 [Example 12, 7-(4-Isopropylbenzyloxy)-2-thiocoumarin]
> 3333	Cc1c(C)c2ccc(OCc3csc(C(C)C)n3)cc2oc1=S [Example 2, 3,4-Dimethyl-7-(2-isopropylthiazol-4-ylmethoxy)-2-thiocoumarin]
> 5000	CCCc1nnc(COc2ccc3c(C)c(C)c(=S)oc3c2)s1 [Example 4, 3,4-Dimethyl-7-(2-n-propyl-1,3,4-thiadiazol-5-ylmethoxy)-2-thiocoumarin]
